# Test results: publication PMC5955599, “The HTLV-1 gp21 fusion peptide inhibits antigen specific T-cell activation in-vitro and in mice” (PLoS Pathogens, 2018)
# System: C57BL/6 female mice
# Test: MOG35-55-induced experimental autoimmune encephalomyelitis (EAE)
# Assay type: in vivo, mouse
# Procedure: (A-B) MOG35-55–antigen specific T-cells were activated by irradiated MOG35-55 presenting APCs, in the presence of HTLV FP or HTLV Scr at 10μM. (A) The proliferative responses were assessed by H^3-thymidine incorporation assay, and normalized to the proliferation of non-activated T-cells. The data is presented as mean inhibition of proliferation. n = 12. (B) IFN-γ was measured by ELISA assay. n = 12. (C-D) EAE was induced in C57BL/6 female mice that were treated with a single dose of HTLV FP, HTLV Scr or vehicle. […] (C) Direct clinical measurement of EAE phenotype in a 5-point scale with increased disease symptoms correlating with higher score value. The data is presented as mean EAE clinical score. (D) Mice were weighed the day before EAE induction, and the change (as a percentage) in weight was recorded. The data is presented as mean change from the initial weight. One-way ANOVA was used for statistical analysis. ^a HTLV FP ≠ Vehicle; ^b HTLV FP ≠ Vehicle & HTLV Scr; ^c HTLV FP ≠ HTLV Scr. ^a,b,cP<0.05. (E) Spleenocytes were harvested at 26 DPI and stimulated using MOG35-55. The proliferative responses were assessed by H^3-thymidine incorporation assay and normalized to the proliferation of non-activated T-cells. The data is presented as counts per minute (CPM). n = 7. (F-G) Spleenocytes were harvested at 26 DPI and stimulated using MOG35-55. Media was collected 48 hours following activation and secretion of IFN-γ and IL4 was measured by ELISA assay. […] One-way ANOVA was used for statistical analysis. *P<0.05;**P<0.01;***P<0.001; ns, not significant.
# EAE was induced in 9-week-old wild type and homozygous C57BL/6 female mice (Harlan Laboratories Israel/ Weizmann Institute animal facilities) by injecting a peptide comprising residues 35–55 of mouse myelin oligodendrocyte glycoprotein (MOG35–55; PolyPeptide Laboratories, Strasbourg, France). Mice were injected subcutaneously above the lumbar spinal cord with 100 μl of emulsion containing 200 μg/mouse of the encephalitogenic peptide in complete Freund’s adjuvant (BD-Difco) enriched with 250 μg/mouse of heat-inactivated Mycobacterium tuberculosis (BD-Difco) at 0 days post-induction (DPI). The HTLV FP was dissolved in PBS and added to the emulsion (1mg/kg). Pertussis toxin (Enzo Life Sciences) at a dose of 300 ng per mouse was injected intraperitoneally immediately after the encephalitogenic injection, as well as at […]. EAE disease was scored using a five-point grading with 0 for no clinical disease; 1, tail weakness; 2, paraparesis (incomplete paralysis of one or two hindlimbs); 3, paraplegia (complete paralysis of one or two hindlimbs); 4, paraplegia with forelimb weakness or paralysis; 5, moribund or dead animals. The mice were examined daily.
# EAE was induced in C57BL/6 female mice that were either treated with a single dose of HTLV FP or vehicle. […] (A) Direct clinical measurement of EAE phenotype in a 5-point scale with increased disease symptoms correlating with higher score value. The data is presented as mean EAE clinical score. (B) Mice were weighed the day before EAE induction, and the change (as a percentage) in weight was recorded. The data is presented as mean change from the initial weight. Student’s t-test was used for statistical analysis. *P<0.05; **P<0.01;***P<0.001. (TIF) Click here for additional data file.
sequence,measurement,setting,value
"AVPVAVWLVSALAMGAGVAGGITGSMSLASGKS [HTLV FP, gp21 fusion peptide of HTLV-1, MT-2 isolate]",clinical symptoms of a cage of treated mice at DPI 17,"additional experiment, S5 and S6 Movies",mild clinical symptoms
same,mice exhibiting no clinical manifestation at DPI 17,"additional experiment, S6 Movie",3 out of 5
same,clinical symptoms of a cage of treated mice at DPI 9,"initial experiment, S3 Movie",no observed clinical symptoms
same,mice exhibiting mild clinical symptoms at DPI 14,"initial experiment, S4 Movie, rest with no observed clinical signs",1 out of 5
same,"EAE clinical symptoms, initial experiment","single dose 1mg/kg added to the MOG35-55/CFA emulsion, vs vehicle, terminated at 14 DPI, 5-point scale",only mild clinical symptoms
same,"EAE clinical signs, additional experiment","single dose 1mg/kg, HTLV FP, HTLV Scr or vehicle, period 11 to 16 DPI, 5-point scale",only mild clinical symptoms and weight loss
same,"locomotory behavior, initial experiment","single dose 1mg/kg, S3 and S4 Movies",most of the HTLV FP treated mice exhibited normal locomotory behavior
same,"locomotory behavior, additional experiment","single dose 1mg/kg, S5 and S6 Movies",better locomotory behavior than the HTLV Scr treated mice
same,"weight change, initial experiment","single dose 1mg/kg, change from initial weight",only by minor weight fluctuations
same,"weight loss, additional experiment","single dose 1mg/kg, period 11 to 16 DPI",only mild clinical symptoms and weight loss
same,"first observation of clinical symptoms, initial experiment","single dose 1mg/kg, vehicle-treated mice first observed at 8 DPI",11 DPI
